Experiments:
NF-κB = assay: LPS-induced phosphorylation of NF-κB in RAW 264.7 cells (Western blot); format: cell-based, murine; settings: KMU-470 0.5 and 1 μM 30 min, LPS 50 ng/mL 6 h
Experimental: Figure 5 Effect of KMU-470 on LPS-induced phosphorylation of MAPKs/ IKKs/ NF-κB in RAW 264.7 cells. (A) Cells were pre-treated with 1μM of KMU-470 for 24 h and stimulated with LPS (50 ng/mL) at the indicated times. (C) Cells were pre-treated with 0.5 and 1μM of KMU-470 for 30 min prior to LPS treatment. Total proteins were isolated after 6 h exposure to LPS (50 ng/mL). The protein expression level of MAPKs, p-IKKα/β, and p-NF-κB were assessed using Western blot analyses. (B,D) The relative optical densities of MAPKs, p-IKKα/β, and p-NF-κB bands were analyzed by the Image-J program. *** p < 0.001.
RAW 264.7 cells were pre-treated with KMU-470 (0.5–1 μM/mL) for 24 h and stimulated with LPS (50 ng/mL) for 6 h. After stimulation, total cells were harvested, washed with PBS buffer, and then the total protein was extracted with a RIPA buffer (0.1 mM sodium orthovanadate, 137 mM NaCl, 15 mM EGTA, 0.1% Triton X-100, 25 mM MOPS, 15 mM MgCl2, 100 μM phenylmethylsulfonyl fluoride, and 20 μM leupeptin, adjusted to pH 7.2). […] Immunoreactive proteins were detected using the ELC Western blot detection system kit (Millipore). Signal intensity was measured using the Chemi Image documentation system (Fusion Fx7, VILBER LOUTMAT). Protein expression levels were quantified using the Image J program.

Bmx (h) = target: T1, Bmx (h) (Homo sapiens, UniProt P51813); assay: Kinase profiling (Eurofins Cerep); format: biochemical; settings: KMU-470 10 μM; ATP at Km
T1 construct: purchased Eurofins Cerep S.A. (kinase profiler service)
Experimental: (§1) To test the specificity of the novel PIM kinase inhibitor KMU-470, a kinase profiler service was conducted by Eurofins Cerep S.A. The screening was performed with 1 and 10 μM of compound and a concentration of ATP at the Km value for each individual kinase and kinase substrate according to Eurofin’s protocols.

JNK1α1 (h) = target: T2, JNK1α1 (h) (Homo sapiens, UniProt P45983); assay: Kinase profiling (Eurofins Cerep); format: biochemical; settings: KMU-470 10 μM; ATP at Km
T2 construct: purchased Eurofins Cerep S.A. (kinase profiler service)
Experimental: as §1

Hck (h) = target: T3, Hck (h) (Homo sapiens, UniProt P08631); assay: Kinase profiling (Eurofins Cerep); format: biochemical; settings: KMU-470 10 μM; ATP at Km
T3 construct: purchased Eurofins Cerep S.A. (kinase profiler service)
Experimental: as §1

Txk (h) = target: T4, Txk (h) (Homo sapiens, UniProt P42681); assay: Kinase profiling (Eurofins Cerep); format: biochemical; settings: KMU-470 10 μM; ATP at Km
T4 construct: purchased Eurofins Cerep S.A. (kinase profiler service)
Experimental: as §1

JAK2 (h) = target: T5, JAK2 (h) (Homo sapiens, UniProt O60674); assay: Kinase profiling (Eurofins Cerep); format: biochemical; settings: ATP at Km
T5 construct: purchased Eurofins Cerep S.A. (kinase profiler service)
T5 sequence (O60674 whole entry): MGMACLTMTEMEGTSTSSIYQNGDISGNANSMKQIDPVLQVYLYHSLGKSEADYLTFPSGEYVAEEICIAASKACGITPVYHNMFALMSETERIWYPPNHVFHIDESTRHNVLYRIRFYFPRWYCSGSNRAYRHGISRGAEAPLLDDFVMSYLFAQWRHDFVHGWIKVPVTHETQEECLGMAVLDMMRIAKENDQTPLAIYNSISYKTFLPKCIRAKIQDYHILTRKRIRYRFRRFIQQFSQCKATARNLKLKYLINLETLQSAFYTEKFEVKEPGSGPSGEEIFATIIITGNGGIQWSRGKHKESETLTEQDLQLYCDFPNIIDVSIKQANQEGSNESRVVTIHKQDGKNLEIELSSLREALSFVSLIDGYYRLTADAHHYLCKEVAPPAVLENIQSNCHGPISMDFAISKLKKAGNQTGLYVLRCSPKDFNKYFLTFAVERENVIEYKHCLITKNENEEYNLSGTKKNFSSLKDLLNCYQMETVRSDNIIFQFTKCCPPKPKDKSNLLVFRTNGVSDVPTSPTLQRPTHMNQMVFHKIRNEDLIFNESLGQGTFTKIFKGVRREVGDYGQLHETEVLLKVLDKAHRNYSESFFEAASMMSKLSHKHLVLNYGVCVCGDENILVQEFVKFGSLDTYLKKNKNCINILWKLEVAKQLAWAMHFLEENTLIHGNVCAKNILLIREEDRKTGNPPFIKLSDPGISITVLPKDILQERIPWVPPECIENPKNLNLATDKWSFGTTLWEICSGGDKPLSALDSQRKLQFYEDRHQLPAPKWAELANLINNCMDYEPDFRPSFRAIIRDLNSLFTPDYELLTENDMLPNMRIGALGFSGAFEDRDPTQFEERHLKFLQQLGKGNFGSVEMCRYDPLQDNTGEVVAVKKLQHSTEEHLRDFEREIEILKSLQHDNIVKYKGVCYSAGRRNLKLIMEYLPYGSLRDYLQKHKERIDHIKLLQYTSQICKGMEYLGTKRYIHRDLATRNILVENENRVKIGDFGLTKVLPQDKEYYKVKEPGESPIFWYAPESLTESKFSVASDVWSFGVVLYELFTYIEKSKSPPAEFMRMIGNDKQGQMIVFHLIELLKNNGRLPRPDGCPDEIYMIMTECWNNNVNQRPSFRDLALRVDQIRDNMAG
Experimental: as §1

Csrc (h) = target: T6, Csrc (h) (Homo sapiens, UniProt P12931); assay: Kinase profiling (Eurofins Cerep); format: biochemical; settings: KMU-470 10 μM; ATP at Km
T6 construct: purchased Eurofins Cerep S.A. (kinase profiler service)
Experimental: as §1

BTK (h) = target: T7, BTK (h) (Homo sapiens, UniProt Q06187); assay: Kinase profiling (Eurofins Cerep); format: biochemical; settings: KMU-470 10 μM; ATP at Km
T7 construct: purchased Eurofins Cerep S.A. (kinase profiler service)
Experimental: as §1

Blk (h) = target: T8, Blk (h) (Homo sapiens, UniProt P51451); assay: Kinase profiling (Eurofins Cerep); format: biochemical; settings: ATP at Km
T8 construct: purchased Eurofins Cerep S.A. (kinase profiler service)
Experimental: as §1

JAK3 (h) = target: T9, JAK3 (h) (Homo sapiens, UniProt P52333); assay: Kinase profiling (Eurofins Cerep); format: biochemical; settings: ATP at Km
T9 construct: purchased Eurofins Cerep S.A. (kinase profiler service)
T9 sequence (P52333 whole entry): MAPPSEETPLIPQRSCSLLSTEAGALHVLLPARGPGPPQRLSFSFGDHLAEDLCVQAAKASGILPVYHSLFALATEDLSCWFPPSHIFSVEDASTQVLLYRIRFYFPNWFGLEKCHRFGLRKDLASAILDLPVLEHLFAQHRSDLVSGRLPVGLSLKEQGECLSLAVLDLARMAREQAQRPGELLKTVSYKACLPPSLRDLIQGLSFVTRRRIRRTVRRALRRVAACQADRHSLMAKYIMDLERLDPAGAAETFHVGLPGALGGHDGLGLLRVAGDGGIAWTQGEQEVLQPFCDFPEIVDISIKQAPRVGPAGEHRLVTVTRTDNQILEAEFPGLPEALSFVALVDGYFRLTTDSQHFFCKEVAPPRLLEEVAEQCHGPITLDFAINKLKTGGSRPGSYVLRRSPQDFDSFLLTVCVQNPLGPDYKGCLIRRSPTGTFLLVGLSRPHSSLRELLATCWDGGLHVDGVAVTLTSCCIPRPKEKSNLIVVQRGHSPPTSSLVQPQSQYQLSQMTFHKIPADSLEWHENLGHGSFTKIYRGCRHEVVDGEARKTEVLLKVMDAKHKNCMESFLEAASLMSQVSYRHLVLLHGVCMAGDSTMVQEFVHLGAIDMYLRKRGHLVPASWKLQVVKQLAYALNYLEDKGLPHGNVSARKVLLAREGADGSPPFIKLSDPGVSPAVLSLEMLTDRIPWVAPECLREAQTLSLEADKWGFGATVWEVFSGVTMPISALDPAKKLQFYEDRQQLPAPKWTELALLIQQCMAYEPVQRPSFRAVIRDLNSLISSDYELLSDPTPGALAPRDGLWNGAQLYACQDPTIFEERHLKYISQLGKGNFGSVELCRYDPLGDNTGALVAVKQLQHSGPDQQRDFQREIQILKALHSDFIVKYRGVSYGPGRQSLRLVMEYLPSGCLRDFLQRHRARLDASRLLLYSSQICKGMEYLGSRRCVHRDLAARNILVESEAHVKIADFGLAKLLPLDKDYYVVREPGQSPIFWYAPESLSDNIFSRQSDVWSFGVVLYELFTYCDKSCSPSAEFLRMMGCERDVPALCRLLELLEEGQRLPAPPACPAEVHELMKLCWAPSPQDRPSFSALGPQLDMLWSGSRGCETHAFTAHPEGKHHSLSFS
Experimental: as §1

JAK1 (h) = target: T10, JAK1 (h) (Homo sapiens, UniProt P23458); assay: Kinase profiling (Eurofins Cerep); format: biochemical; settings: ATP at Km
T10 construct: purchased Eurofins Cerep S.A. (kinase profiler service)
Experimental: as §1

ZAP-70 (h) = target: T11, ZAP-70 (h) (Homo sapiens, UniProt P43403); assay: Kinase profiling (Eurofins Cerep); format: biochemical; settings: KMU-470 10 μM; ATP at Km
T11 construct: purchased Eurofins Cerep S.A. (kinase profiler service)
Experimental: as §1

Tec (h) activated = target: T12, Tec (h) activated (Homo sapiens, UniProt P42680); assay: Kinase profiling (Eurofins Cerep); format: biochemical; settings: KMU-470 10 μM; ATP at Km
T12 construct: purchased Eurofins Cerep S.A. (kinase profiler service)
Experimental: as §1

Lck (h) = target: T13, Lck (h) (Homo sapiens, UniProt P06239); assay: Kinase profiling (Eurofins Cerep); format: biochemical; settings: ATP at Km
T13 construct: purchased Eurofins Cerep S.A. (kinase profiler service)
Experimental: as §1

TYK2 (h) = target: T14, TYK2 (h) (Homo sapiens, UniProt P29597); assay: Kinase profiling (Eurofins Cerep); format: biochemical; settings: ATP at Km
T14 construct: purchased Eurofins Cerep S.A. (kinase profiler service)
T14 sequence (P29597 whole entry): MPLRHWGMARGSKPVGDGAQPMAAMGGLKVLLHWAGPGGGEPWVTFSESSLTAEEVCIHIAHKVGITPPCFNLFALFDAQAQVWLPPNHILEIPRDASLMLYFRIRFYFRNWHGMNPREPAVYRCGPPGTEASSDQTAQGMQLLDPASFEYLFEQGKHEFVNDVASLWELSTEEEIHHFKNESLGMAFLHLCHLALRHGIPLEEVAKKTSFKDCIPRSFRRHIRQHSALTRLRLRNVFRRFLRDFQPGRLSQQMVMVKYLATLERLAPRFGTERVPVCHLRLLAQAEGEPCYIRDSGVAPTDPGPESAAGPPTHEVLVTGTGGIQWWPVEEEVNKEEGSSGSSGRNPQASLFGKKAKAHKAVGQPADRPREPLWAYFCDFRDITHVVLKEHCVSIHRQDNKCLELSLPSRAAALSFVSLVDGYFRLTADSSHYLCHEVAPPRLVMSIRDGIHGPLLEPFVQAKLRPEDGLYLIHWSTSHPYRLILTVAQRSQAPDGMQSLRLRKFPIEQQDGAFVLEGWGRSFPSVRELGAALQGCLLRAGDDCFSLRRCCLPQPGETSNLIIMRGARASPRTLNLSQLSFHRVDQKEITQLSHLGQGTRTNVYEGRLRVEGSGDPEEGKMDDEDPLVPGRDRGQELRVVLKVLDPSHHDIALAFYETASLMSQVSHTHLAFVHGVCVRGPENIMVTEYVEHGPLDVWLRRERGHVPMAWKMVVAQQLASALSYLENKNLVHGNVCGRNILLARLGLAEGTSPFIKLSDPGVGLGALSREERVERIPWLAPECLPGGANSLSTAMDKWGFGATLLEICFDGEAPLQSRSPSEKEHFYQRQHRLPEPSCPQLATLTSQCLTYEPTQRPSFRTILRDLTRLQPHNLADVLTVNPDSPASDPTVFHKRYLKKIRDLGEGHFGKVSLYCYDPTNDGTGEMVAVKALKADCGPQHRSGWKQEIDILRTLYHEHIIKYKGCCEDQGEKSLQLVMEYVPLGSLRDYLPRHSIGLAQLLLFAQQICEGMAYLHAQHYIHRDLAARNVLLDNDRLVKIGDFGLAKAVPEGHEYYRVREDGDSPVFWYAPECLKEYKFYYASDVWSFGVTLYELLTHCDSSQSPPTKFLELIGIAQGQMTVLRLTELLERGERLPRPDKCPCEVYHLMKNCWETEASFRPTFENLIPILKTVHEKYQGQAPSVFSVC
Experimental: as §1

Syk (h) = target: T15, Syk (h) (Homo sapiens, UniProt P43405); assay: Kinase profiling (Eurofins Cerep); format: biochemical; settings: ATP at Km
T15 construct: purchased Eurofins Cerep S.A. (kinase profiler service)
Experimental: as §1

Itk (h) = target: T16, Itk (h) (Homo sapiens, UniProt Q08881); assay: Kinase profiling (Eurofins Cerep); format: biochemical; settings: ATP at Km
T16 construct: purchased Eurofins Cerep S.A. (kinase profiler service)
T16 sequence (Q08881 whole entry): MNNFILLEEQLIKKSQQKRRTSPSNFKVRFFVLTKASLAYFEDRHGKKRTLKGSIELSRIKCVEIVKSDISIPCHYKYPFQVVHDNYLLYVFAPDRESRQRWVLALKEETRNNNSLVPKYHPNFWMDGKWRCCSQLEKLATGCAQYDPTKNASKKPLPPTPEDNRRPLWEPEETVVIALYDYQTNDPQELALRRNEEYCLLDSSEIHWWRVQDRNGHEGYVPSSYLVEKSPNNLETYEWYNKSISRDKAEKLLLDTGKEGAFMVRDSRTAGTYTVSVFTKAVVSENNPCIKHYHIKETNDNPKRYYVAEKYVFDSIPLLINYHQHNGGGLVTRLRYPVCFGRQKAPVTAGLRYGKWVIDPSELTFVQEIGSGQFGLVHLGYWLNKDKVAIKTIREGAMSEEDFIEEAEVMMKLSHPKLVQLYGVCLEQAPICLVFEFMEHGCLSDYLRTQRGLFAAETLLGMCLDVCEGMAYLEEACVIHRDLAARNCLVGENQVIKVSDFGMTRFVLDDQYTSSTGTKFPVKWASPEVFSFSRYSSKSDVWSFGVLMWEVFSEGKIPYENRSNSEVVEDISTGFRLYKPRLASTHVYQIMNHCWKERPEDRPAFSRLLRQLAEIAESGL
Experimental: as §1

Pyk2 (h) = target: T17, Pyk2 (h) (Homo sapiens, UniProt Q14289); assay: Kinase profiling (Eurofins Cerep); format: biochemical; settings: KMU-470 10 μM; ATP at Km
T17 construct: purchased Eurofins Cerep S.A. (kinase profiler service)
Experimental: as §1

Yes (h) = target: T18, Yes (h) (Homo sapiens, UniProt P07947); assay: Kinase profiling (Eurofins Cerep); format: biochemical; settings: ATP at Km
T18 construct: purchased Eurofins Cerep S.A. (kinase profiler service)
Experimental: as §1

SAPK2a (h) = target: T19, SAPK2a (h) (Homo sapiens, UniProt Q16539); assay: Kinase profiling (Eurofins Cerep); format: biochemical; settings: KMU-470 10 μM; ATP at Km
T19 construct: purchased Eurofins Cerep S.A. (kinase profiler service)
Experimental: as §1

Lyn (h) = target: T20, Lyn (h) (Homo sapiens, UniProt P07948); assay: Kinase profiling (Eurofins Cerep); format: biochemical; settings: ATP at Km
T20 construct: purchased Eurofins Cerep S.A. (kinase profiler service)
Experimental: as §1

MAPK1 (h) = target: T21, MAPK1 (h) (Homo sapiens, UniProt P27361); assay: Kinase profiling (Eurofins Cerep); format: biochemical; settings: ATP at Km
T21 construct: purchased Eurofins Cerep S.A. (kinase profiler service)
T21 sequence (P27361 2-379 limits assumed): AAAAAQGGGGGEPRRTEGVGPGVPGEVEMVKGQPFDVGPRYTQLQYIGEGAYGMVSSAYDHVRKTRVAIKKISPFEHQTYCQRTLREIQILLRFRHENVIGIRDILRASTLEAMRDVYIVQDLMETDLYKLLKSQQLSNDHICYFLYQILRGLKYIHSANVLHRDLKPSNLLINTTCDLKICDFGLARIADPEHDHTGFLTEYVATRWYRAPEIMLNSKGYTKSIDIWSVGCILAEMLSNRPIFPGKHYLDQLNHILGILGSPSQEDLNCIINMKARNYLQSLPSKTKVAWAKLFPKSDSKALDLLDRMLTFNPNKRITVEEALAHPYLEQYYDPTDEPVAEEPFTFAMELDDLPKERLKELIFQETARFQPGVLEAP
Experimental: as §1

Fyn (h) = target: T22, Fyn (h) (Homo sapiens, UniProt P06241); assay: Kinase profiling (Eurofins Cerep); format: biochemical; settings: ATP at Km
T22 construct: purchased Eurofins Cerep S.A. (kinase profiler service)
T22 sequence (P06241 whole entry): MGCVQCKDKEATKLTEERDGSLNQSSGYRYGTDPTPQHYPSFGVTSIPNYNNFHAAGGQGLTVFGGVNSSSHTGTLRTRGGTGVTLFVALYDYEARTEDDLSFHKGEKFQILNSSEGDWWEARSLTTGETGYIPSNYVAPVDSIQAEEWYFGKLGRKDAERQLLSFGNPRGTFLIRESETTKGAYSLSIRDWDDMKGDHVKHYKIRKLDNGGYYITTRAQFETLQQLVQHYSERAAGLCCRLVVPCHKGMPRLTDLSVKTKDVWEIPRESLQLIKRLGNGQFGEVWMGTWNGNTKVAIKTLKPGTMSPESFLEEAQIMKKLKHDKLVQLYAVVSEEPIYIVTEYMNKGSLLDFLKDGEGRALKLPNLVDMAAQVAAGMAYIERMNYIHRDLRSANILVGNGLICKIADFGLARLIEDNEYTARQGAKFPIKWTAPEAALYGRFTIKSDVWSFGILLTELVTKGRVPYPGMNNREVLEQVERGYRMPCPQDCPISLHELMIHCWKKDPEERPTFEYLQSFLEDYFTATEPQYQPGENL
Experimental: as §1

Fgr (h) = target: T23, Fgr (h) (Homo sapiens, UniProt P09769); assay: Kinase profiling (Eurofins Cerep); format: biochemical; settings: ATP at Km
T23 construct: purchased Eurofins Cerep S.A. (kinase profiler service)
Experimental: as §1

CN(C)CCNc1cncc(-c2ccc3c(c2)/C(=C/c2cnc[nH]2)C(=O)N3)n1 [KMU-470, (Z)-3-((1H-Imidazol-5-yl)methylene)-5-(6-((2-(dimethylamino)ethyl)amino)pyrazin-2-yl)indolin-2-one]
LPS-induced phosphorylation of NF-κB (NF-κB): significantly reduced | Activity (% Control) Bmx (h) (Bmx (h)): 47 % Control | Activity (% Control) JNK1α1 (h) (JNK1α1 (h)): 34 % Control | Activity (% Control) Hck (h) (Hck (h)): 37 % Control | Activity (% Control) Txk (h) (Txk (h)): 50 % Control | Activity (% Control) JAK2 (h) (JAK2 (h); KMU-470 1 μM): 107 % Control | Activity (% Control) JAK2 (h) (JAK2 (h); KMU-470 10 μM): 23 % Control | Activity (% Control) Csrc (h) (Csrc (h)): 43 % Control | Activity (% Control) BTK (h) (BTK (h)): 80 % Control | Activity (% Control) Blk (h) (Blk (h); KMU-470 1 μM): 53 % Control | Activity (% Control) Blk (h) (Blk (h); KMU-470 10 μM): 5 % Control | Activity (% Control) JAK3 (h) (JAK3 (h); KMU-470 1 μM): 38 % Control | Activity (% Control) JAK3 (h) (JAK3 (h); KMU-470 10 μM): 15 % Control | Activity (% Control) JAK1 (h) (JAK1 (h); KMU-470 1 μM): 61 % Control | Activity (% Control) JAK1 (h) (JAK1 (h); KMU-470 10 μM): 20 % Control | Activity (% Control) ZAP-70 (h) (ZAP-70 (h)): 100 % Control | Activity (% Control) Tec (h) activated (Tec (h) activated): 71 % Control | Activity (% Control) Lck (h) (Lck (h); KMU-470 1 μM): 41 % Control | Activity (% Control) Lck (h) (Lck (h); KMU-470 10 μM): 14 % Control | Activity (% Control) TYK2 (h) (TYK2 (h); KMU-470 1 μM): 54 % Control | Activity (% Control) TYK2 (h) (TYK2 (h); KMU-470 10 μM): 14 % Control | Activity (% Control) Syk (h) (Syk (h); KMU-470 1 μM): 82 % Control | Activity (% Control) Syk (h) (Syk (h); KMU-470 10 μM): 21 % Control | Activity (% Control) Itk (h) (Itk (h); KMU-470 1 μM): 75 % Control | Activity (% Control) Itk (h) (Itk (h); KMU-470 10 μM): 21 % Control | Activity (% Control) Pyk2 (h) (Pyk2 (h)): 41 % Control | Activity (% Control) Yes (h) (Yes (h); KMU-470 1 μM): 22 % Control | Activity (% Control) Yes (h) (Yes (h); KMU-470 10 μM): −3 % Control | Activity (% Control) SAPK2a (h) (SAPK2a (h)): 77 % Control | Activity (% Control) Lyn (h) (Lyn (h); KMU-470 1 μM): 30 % Control | Activity (% Control) Lyn (h) (Lyn (h); KMU-470 10 μM): 10 % Control | Activity (% Control) MAPK1 (h) (MAPK1 (h); KMU-470 1 μM): 6 % Control | Activity (% Control) MAPK1 (h) (MAPK1 (h); KMU-470 10 μM): −18 % Control | Activity (% Control) Fyn (h) (Fyn (h); KMU-470 1 μM): 97 % Control | Activity (% Control) Fyn (h) (Fyn (h); KMU-470 10 μM): 16 % Control | Activity (% Control) Fgr (h) (Fgr (h); KMU-470 1 μM): 42 % Control | Activity (% Control) Fgr (h) (Fgr (h); KMU-470 10 μM): 8 % Control

From PMC7403980, “Anti-Inflammatory Effects of the Novel PIM Kinase Inhibitor KMU-470 in RAW 264.7 Cells through the TLR4-NF-κB-NLRP3 Pathway” (International Journal of Molecular Sciences, 2020)
